Source: patent US20080253996A1, “Use of Sdf-1 for the Treatment and/or Prevention of Neurological Diseases” (LABORATORIES SERONO SA, priority 2005, published 2008)

Assays:
Format in all cases: in vivo, rat
[1] = Body weight in streptozotocin (STZ) diabetic rats; settings: daily s.c. D11 to D40 post-STZ; SDF-1α 10, 30, 100 μg/kg, IL-6 10 μg/kg
Experimental: (§1) Eight week-old male Sprague Dawley rats (Janvier, Le Genest Saint Isle, France) were randomly distributed in 6 experimental groups (n=10) as shown below.
(§2) Diabetes was induced by intravenous injection of a buffered solution of streptozotocin (Sigma, L'Isle d'Abeau Chesnes, France) at a dose of 55 mg/kg. STZ was prepared in 0.1 mol/l citrate buffer pH 4.5. Control group received an equivalent volume of citrate buffer. The day of STZ injection was considered as D0.
(§3) Treatment with SDF-1α, with IL-6 or their matched vehicle was performed on daily basis from D11 to D40.

[2] = tested on: STZ-rats; experiment: Von Frey filament test in STZ diabetic rats; settings: day 20 post-STZ; SDF-1α 10, 30, 100 μg/kg, IL-6 10 μg/kg s.c.
Experimental: as §1
as §2, with “The control” for “Control”
(§4) Treatment with SDF-1α with IL-6 or their matched vehicle was performed on daily basis from D11 to D40.
The rat was placed on a metallic grid floor. The nociceptive testing was done by inserting the Von Frey filament (Bioseb, France) through the grid floor and applying it to the plantar surface of the hind paw. A trial consisted of several applications of the different von Frey filaments (at a frequency of 1-1.5 s). The Von Frey filaments were applied from filament 10 g to 180 g. The pressure that produces a brisk withdrawal of hind paw was considered as threshold value. Cuttoff value was set to 180 g.

[3] = tested on: STZ-rats; experiment: Hot plate 52° C. test in STZ diabetic rats; settings: D40 post-STZ, SDF-1α 10, 30, 100 μg/kg, IL-6 10 μg/kg s.c.
Experimental: as §1
as §2, with “The control” for “Control”
as §4
The animal was placed into a glass cylinder on a hot plate adjusted to 52° C. The latency of the first reaction was recorded (licking, brisk movement of the paws, little leaps or a jump to escape the heat) with a cutoff time of 30 s.

[4] = tested on: STZ-rats; experiment: STZ diabetic neuropathy, electromyography (CMAP latency, SNCV); settings: D25 post-STZ (similar profile at D40), IL-6 10 μg/kg s.c.; for sensory nerve conduction velocity (SNCV) of diabetic rats: SDF-1α 10, 30, 100 μg/kg (best effect 10 and 30 μg/kg); for CMAP latency of diabetic rats vs vehicle-treated diabetic rats: SDF-1α 10, 30, 100 μg/kg
Experimental: as §1, §2, §3
Planning of Experiments • Day −7: baseline (EMG) • Day 0: induction by the streptozotocin • Day 7: glycemia monitoring • Day 11: Onset of the treatment • Day 20: Von Frey test • Day 25: EMG monitoring • Day 40: EMG monitoring and HP 52° C. test • Day 41: sciatic nerves and skin biopsy samples were taken off for the histomorphometric analysis.
Electrophysiological recordings were performed using electromyograph (Keypoint, Medtronic, Boulogne-Billancourt, France). Rats were anaesthetized by intraperitoneal injection (IP) of 60 mg/kg ketamine chlorhydrate (Imalgene 500®, Rhône Mérieux, Lyon. France) and 4 mg/kg xylazin (Rompum 2%, Bayer Pharma, Kiel, Germany). The normal body temperature was maintained at […] with a heating lamp and controlled by a contact thermometer (Quick, Bioblock Scientific, Illkirch, France) placed on the tail surface.
Compound muscle action potential (CMAP) was recorded in the gastrocnemius muscle after stimulation of the sciatic nerve. A reference electrode and an active needle were placed in the hindpaw. A ground needle was inserted on the lower back of the rat. Sciatic nerve was stimulated with a single 0.2 ms pulse at a supramaximal intensity. The velocity of the motor wave was recorded.
Sensitive nerve conduction velocity (SNCV) was also recorded. The tail skin electrodes were placed as follows: a reference needle inserted at the base of the tail and an anode needle placed 30 mm away from the reference needle towards the extremity of the tail. A ground needle electrode was inserted between the anode and reference needles. The caudal nerve was stimulated with a series of 20 pulses (for 0.2 ms) at an intensity of 12.8 mA. The velocity was expressed in m/s.
Global analysis of the data was performed using one factor or repeated measure analysis of variance (ANOVA) and one-way ANOVA. When ANOVA indicated significant difference, Fisher Protected Least Significant Difference was used as post-hoc test to compare experimental groups with the group of diabetic rats treated with the vehicle. The level of significance was set at p≦0.05. Results are expressed as mean ±standard error of the mean (s.e.m.).

Substance | body weight of diabetic rats [1] | threshold value in Von Frey test vs vehicle-treated diabetic rats [2] | threshold latency in the hot plate test [3] | sensory nerve conduction velocity (SNCV) of diabetic rats [4] | CMAP latency of diabetic rats vs vehicle-treated diabetic rats [4]
IL-6: reference (positive) control compound in nerve crush and STZ models [reference compound] | slight but significant increase | significant increase | significantly lowered | significantly improved | significant reduction
SDF-1α: Human recombinant chemokine SDF-1α (SEQ ID NO: 1), produced in house, expressed in E. Coli cells | slight but significant increase | significant increase | significantly lowered | significantly improved | significant reduction
